Results as given in patent US9409864B2, “Sulfonamide TRPA1 receptor antagonists” (ARIO PHARMA LIMITED, priority 2013, dated 2016).
Read-outs that look alike come from different tables or passages of the source.

How the values were obtained:
[1] = target: T1, native human TRPA1 receptors (Homo sapiens, UniProt O75762); assay: PF-4840154 (1 μM)-induced Ca2+ fluorescence measurements in A549 cell line; type: cell-based; conditions: for inhibition at 10 µM: 10 μM compound against 1 μM PF-4840154, A549 cells; for IC50: against PF-4840154 (1 μM)-evoked [Ca2+]i mobilization, A549 cells
T1 construct: stably expressing native human TRPA1 receptors were used; endogenous in cells; host or cells: A549 human lung adenocarcinoma epithelial cell line
Procedure, shortened: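 A549 cells stably expressing native human TRPA1, Fluo-4 AM loaded; fluorescence Ca2+ read in HBSS with probenecid and Brilliant Black at 36.5 °C. Compounds tested alone for agonism and against 1 μM PF-4840154 for inhibition at initial 10 μM; IC50 from full concentration-response curves for selected compounds.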

[2] = target: T2, TRPA1 (cultured rat dorsal root ganglia neurons) (Rattus norvegicus, UniProt Q6RI86); assay: PF-4840154 (10 μM)-induced Ca2+ fluorescence measurements in cultured rat dorsal root ganglia neurons; type: cell-based; conditions: against 10 μM PF-4840154-induced [Ca2+]i mobilization, primary culture of rat dorsal ganglia neurons
T2 construct: calcium assay data obtained in primary culture of rat dorsal ganglia neurons; from tissue; host or cells: primary culture of dorsal root ganglia neurons from male SD rats
Method: PF-4840154 (10 μM)-Induced Ca^2+ Fluorescence Measurements in Cultured Rat Dorsal Root Ganglia Neurons
Male SD rats (˜50 g, Charles River, Italy) were terminally anaesthetized and decapitated. Dorsal root ganglia were removed and placed in cold Hank's balanced salt solution (HBSS) before being transferred to collagenase (2 mg/ml) and trypsin (1 mg/ml) for 35 min at 37° C. The ganglia, placed in cold DMEM supplemented with 10% fetal bovine serum, 10% horse serum, 2 mM L-glutamine, 100 U/ml penicillin and 100 μg/ml streptomycin, were dissociated in single cells by several passages through a series of syringe needles (23G down to 25G). The medium and the ganglia were filtered to remove debris, topped up with 4 ml of DMEM medium and centrifuged (1100 rpm for 6 min). The final cell pellet was re-suspended in DMEM medium [supplemented with 100 ng/ml mouse Nerve Growth Factor (mouse-NGF-7S) and cytosine-β-D-arabinofuranoside free base (ARA-C) 2.5 μM]. The cells were plated on poly-L-lysine (8.3 μM)- and laminin (5 μM)-coated 25 mm glass cover slips and kept for 2 days at 37° C. in a humidified incubator gassed with 5% CO2 and air, then treated with Fura-2-AM-ester (5 μM) in a Ca^2+ buffer solution having the following composition (mM): CaCl2 1.4, KCl 5.4, MgSO4 0.4, NaCl 135, D-glucose 5, HEPES 10 with BSA (0.1%), at pH 7.4, for 40 min at 37° C. The cells were then washed twice with the Ca^2+ buffer solution and transferred to a chamber on the stage of a Nikon eclipse TE300 microscope. Fura-2-AM-ester was excited at […] to indicate relative [Ca^2+]i changes by the F340/F380 ratio recorded with a dynamic image analysis system (Laboratory Automation 2.0, RCS, Florence, Italy) and the cells were allowed (at least 10 min) to attain a stable fluorescence before beginning the experiment. A calibration curve was set up using buffer containing Fura-2-AM-ester and determinant concentrations of free Ca^2+. This curve was then used to convert the data obtained from the F340/F380 ratio to [Ca^2+]i (nM).
All exemplified compounds were tested at the concentration of 10 μM against the calcium uptake induced by 10 μM PF-4840154. For selected examples, the entire concentration response curves were constructed and the respective IC50 value calculated.

[3] = system: PF-4840154-induced mechanical hyperalgesia in rats; assay: Agonist (PF-4840154)-induced mechanical hyperalgesia in rats; type: in vivo; conditions: Rattus norvegicus, 30 μmol/kg oral, PF-4840154 0.05 nmol/50 μl/paw intraplantar
Text: Agonist (PF-4840154)-Induced Mechanical Hyperalgesia in Rats
The method is used to investigate the anti-hyperalgesic effects of the compounds listed in the present invention following agonist (PF-4840154)-induced hyperalgesic responses. The activity is indicative of TRPA1 receptor occupancy following oral dosing. Specifically, male SD rats (Charles River, Italy) weighing 70-100 g. were used. The anti-hyperalgesic effects were investigated using the electronic dynamometer test. PF-4840154 (Sigma, USA) was used to induce mechanical hyperalgesia. Local, intraplantar injection of PF-4840154 at 0.05 nmol/50 μl/paw caused the reduction of the hind paw withdrawal response induced by mechanical stimuli. Mechanical stimulation was induced in basal condition and 30, 60, 120, 180 and 240 minutes after the oral administration of the antagonists dissolved in 2.5% DMSO and 30% Solutol. Compounds were orally administered (30 μmol/kg/10 ml) to rats 1 hour before the injection of PF-4840154 into the plantar surface of a rat's hind using a micro syringe.

[4] = system: oxaliplatin-induced mechanical hyperalgesia in rats; assay: Oxaliplatin-induced mechanical hyperalgesia in rats; type: in vivo; conditions: Rattus norvegicus, 168 h, 30 μmol/kg oral, 7 days post i.v. oxaliplatin 2.5 mg/kg
Method: Oxaliplatin-Induced Mechanical Hyperalgesia in Rats
The method described by Nassini et al. (Pain, 2011, 152(7), 1621-31) was used with minor modifications. Restrained rats were treated with a single intravenous bolus injection of oxaliplatin (2.5 mg/kg) dissolved in normal saline. This approach was sufficient to elicit reproducible allodynic behaviour evident 3 days post injection and during the day thereafter. For convenience all acute experiments were conducted 7 days post injection when compounds were orally administered at 30 μmol/kg.

[5] = read-out: % of reversal of mechanical allodynia
[6] = read-out: Maximal inhibition (%)

T1 sequence (O75762 whole entry): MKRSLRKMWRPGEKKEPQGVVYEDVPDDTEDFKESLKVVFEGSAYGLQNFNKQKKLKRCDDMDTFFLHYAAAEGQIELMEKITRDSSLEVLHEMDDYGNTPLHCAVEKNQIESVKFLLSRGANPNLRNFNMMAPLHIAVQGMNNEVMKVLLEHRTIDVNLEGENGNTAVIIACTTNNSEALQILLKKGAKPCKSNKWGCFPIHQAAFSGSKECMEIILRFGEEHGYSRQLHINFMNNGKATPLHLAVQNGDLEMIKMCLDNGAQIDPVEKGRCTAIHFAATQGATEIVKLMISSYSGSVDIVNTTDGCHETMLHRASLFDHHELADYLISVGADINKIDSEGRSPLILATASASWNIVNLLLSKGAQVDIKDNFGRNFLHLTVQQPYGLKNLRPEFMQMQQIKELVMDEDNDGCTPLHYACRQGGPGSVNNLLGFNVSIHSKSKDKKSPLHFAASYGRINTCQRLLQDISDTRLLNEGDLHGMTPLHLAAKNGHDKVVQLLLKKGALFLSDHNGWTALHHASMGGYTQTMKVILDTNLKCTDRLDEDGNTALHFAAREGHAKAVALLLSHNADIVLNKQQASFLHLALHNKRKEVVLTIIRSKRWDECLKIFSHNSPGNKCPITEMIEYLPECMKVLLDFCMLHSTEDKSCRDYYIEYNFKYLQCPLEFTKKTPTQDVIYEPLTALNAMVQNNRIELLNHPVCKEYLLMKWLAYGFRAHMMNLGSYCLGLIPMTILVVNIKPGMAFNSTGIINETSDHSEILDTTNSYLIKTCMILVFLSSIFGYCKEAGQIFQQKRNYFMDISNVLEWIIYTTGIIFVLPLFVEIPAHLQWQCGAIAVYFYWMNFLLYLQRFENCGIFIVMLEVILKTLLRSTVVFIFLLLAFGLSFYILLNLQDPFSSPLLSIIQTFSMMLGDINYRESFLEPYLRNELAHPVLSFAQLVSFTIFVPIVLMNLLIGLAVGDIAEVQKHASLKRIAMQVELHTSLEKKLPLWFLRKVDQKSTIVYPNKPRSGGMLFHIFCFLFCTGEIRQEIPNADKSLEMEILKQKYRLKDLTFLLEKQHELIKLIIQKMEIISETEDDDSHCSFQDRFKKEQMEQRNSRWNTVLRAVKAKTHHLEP
T2 sequence (Q6RI86 whole entry): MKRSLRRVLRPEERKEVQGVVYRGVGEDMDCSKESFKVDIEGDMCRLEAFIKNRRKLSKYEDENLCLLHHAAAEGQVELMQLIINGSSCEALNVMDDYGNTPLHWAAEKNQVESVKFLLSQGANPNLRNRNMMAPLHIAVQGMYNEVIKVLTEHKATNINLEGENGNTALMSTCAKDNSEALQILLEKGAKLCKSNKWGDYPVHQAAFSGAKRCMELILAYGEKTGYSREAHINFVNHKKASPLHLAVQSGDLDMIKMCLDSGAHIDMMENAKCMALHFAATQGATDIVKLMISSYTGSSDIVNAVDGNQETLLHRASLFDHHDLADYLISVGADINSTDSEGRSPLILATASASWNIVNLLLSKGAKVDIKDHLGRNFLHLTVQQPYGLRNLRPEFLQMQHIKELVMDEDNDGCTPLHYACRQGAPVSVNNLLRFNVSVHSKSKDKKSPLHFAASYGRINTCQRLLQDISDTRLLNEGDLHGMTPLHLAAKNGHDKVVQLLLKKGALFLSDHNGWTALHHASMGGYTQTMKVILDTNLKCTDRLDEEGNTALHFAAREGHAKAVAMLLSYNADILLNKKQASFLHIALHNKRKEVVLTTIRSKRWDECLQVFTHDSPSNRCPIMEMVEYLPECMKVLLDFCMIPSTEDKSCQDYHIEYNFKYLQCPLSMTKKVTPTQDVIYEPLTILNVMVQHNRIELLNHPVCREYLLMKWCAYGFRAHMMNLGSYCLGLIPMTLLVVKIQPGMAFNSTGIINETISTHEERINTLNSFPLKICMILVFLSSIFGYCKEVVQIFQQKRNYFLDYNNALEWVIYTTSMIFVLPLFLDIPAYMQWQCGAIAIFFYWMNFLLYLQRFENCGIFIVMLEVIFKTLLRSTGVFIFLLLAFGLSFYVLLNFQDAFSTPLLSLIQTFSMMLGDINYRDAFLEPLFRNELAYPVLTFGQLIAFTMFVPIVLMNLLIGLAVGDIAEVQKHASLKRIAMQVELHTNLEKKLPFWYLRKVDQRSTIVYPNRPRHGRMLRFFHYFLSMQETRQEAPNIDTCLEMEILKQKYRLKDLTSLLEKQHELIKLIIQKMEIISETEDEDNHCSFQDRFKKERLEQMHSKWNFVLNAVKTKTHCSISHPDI

Row | inhibition at 10 µM [1] | IC50 [1] | IC50 [2] | SMILES | inhibition in vivo at 30 µmol/kg [3, 5] | inhibition in vivo at 30 µmol/kg [3, 6] | inhibition in vivo at 30 µmol/kg [4, 5] | inhibition in vivo at 30 µmol/kg [4, 6]
1 | 99% | 0.025 µM | 0.047 µM | C=C(C(=O)NCc1cccc(-c2ccc(C(F)(F)F)cc2)c1)N(CC)S(=O)(=O)c1ccc(Cl)cc1 [Example 10, 2-[(4-chlorophenyl)sulfonyl-ethyl-amino]-N-[[3-[4-(trifluoromethyl)phenyl]phenyl]methyl]prop-2-enamide] | 63% | 63% | – | –
2 | 100% | 0.04 µM | 0.06 µM | C=C(C(=O)NCc1cc(-c2ccc(C(F)(F)F)cc2)nc(N2CCCC2)c1)N(CC)S(=O)(=O)c1ccc(Cl)cc1 [Example 14, 2-[(4-chlorophenyl)sulfonyl-ethyl-amino]-N-[[2-pyrrolidin-1-yl-6-[4-(trifluoromethyl)phenyl]-4-pyridyl]methyl]prop-2-enamide] | 75% | 75% | – | –
3 | 99% | 0.017 µM | 0.02 µM | C=C(C(=O)NCc1cccc(-c2ccc(OC(F)(F)F)cc2)c1)N(CC)S(=O)(=O)c1ccc(F)cc1 [Example 11, 2-[ethyl-(4-fluorophenyl)sulfonyl-amino]-N-[[3-[4-(trifluoromethoxy)phenyl]phenyl]methyl]prop-2-enamide] | 72% | 72% | – | –
4 | 100% | 0.074 µM | 0.068 µM | C=C(C(=O)NCc1cc(-c2ccc(C(F)(F)F)cc2)nc(-c2ccc(C(F)(F)F)cc2)c1)N(CC)S(=O)(=O)c1ccc(Cl)cc1 [Example 19, N-[[2,6-bis[4-(trifluoromethyl)phenyl]-4-pyridyl]methyl]-2-[(4-chlorophenyl)sulfonyl-ethyl-amino]prop-2-enamide] | 74% | 74% | – | –
5 | 100% | 0.017 µM | – | CCOc1cc(CNC(=O)C2(N(CC)S(=O)(=O)c3ccc(Cl)s3)CC2)cc(-c2ccc(C(F)(F)F)cc2)n1 [Example 53, 1-[(5-chloro-2-thienyl)sulfonyl-ethyl-amino]-N-[[2-ethoxy-6-[4-(trifluoromethyl)phenyl]-4-pyridyl]methyl] cyclopropanecarboxamide] | 89% | 89% | 83% | 83%
6 | 100% | 0.015 µM | 0.014 µM | C=C(C(=O)NCc1ccnc(-c2ccc(C(F)(F)F)cc2)c1)N(CC)S(=O)(=O)c1ccc(F)cc1 [Example 1, 2-[ethyl-(4-fluorophenyl)sulfonyl-amino]-N-[[2-[4-(trifluoromethyl)phenyl]-4-pyridyl]methyl]prop-2-enamide] | 80% | 80% | 97% | 97%
7 | 100% | 0.036 µM | 0.029 µM | C=C(C(=O)NCc1ccnc(-c2ccc(OC(F)(F)F)cc2)c1)N(CC)S(=O)(=O)c1ccc(Cl)s1 [Example 7, 2-[(5-chloro-2-thienyl)sulfonyl-ethyl-amino]-N-[[2-[4-(trifluoromethoxy)phenyl]-4-pyridyl]methyl]prop-2-enamide] | 74% | 74% | – | –
8 | 100% | 0.041 µM | – | CCN(C1(C(=O)NCc2cc(-c3ccc(C(F)(F)F)cc3)nc(N3CCCC3)c2)CC1)S(=O)(=O)c1ccc(F)cc1 [Example 51, 1-[ethyl-(4-fluorophenyl)sulfonyl-amino]-N-[[2-pyrrolidin-1-yl-6-[4-(trifluoromethyl)phenyl]-4-pyridyl]methyl]cyclopropanecarboxamide] | 76% | 76% | 65% | 65%
9 | 100% | 0.019 µM | – | CCN(C1(C(=O)NCc2cc(OC)nc(-c3ccc(C(F)(F)F)cc3)c2)CC1)S(=O)(=O)c1ccc(Cl)s1 [Example 50, 1-[(5-chloro-2-thienyl)sulfonyl-ethyl-amino]-N-[[2-methoxy-6-[4-(trifluoromethyl)phenyl]-4-pyridyl]methyl] cyclopropanecarboxamide] | 76% | 76% | 82% | 82%
10 | 99% | 0.038 µM | – | CCN(C1(C(=O)NCc2cccc(-c3ccc(C(F)(F)F)cc3)c2)CC1)S(=O)(=O)c1ccc(Cl)s1 [Example 59, 1-[(5-chloro-2-thienyl)sulfonyl-ethyl-amino]-N-[[3-[4-(trifluoromethyl)phenyl]phenyl]methyl]cyclopropanecarboxamide] | 111% | 111% | 67% | 67%
11 | 100% | 0.017 µM | 0.014 µM | C=C(C(=O)NCc1cc(-c2ccc(C(F)(F)F)cc2)nc(N2CCCC2)c1)N(CC)S(=O)(=O)c1ccc(F)cc1 [Example 38, 2-[ethyl-(4-fluorophenyl)sulfonyl-amino]-N-[[2-pyrrolidin-1-yl-6-[4-(trifluoromethyl)phenyl]-4-pyridyl]methyl]prop-2-enamide] | 87% | 87% | – | –
12 | 100% | 0.018 µM | – | C=C(C(=O)NCc1cc(-c2ccc(C(F)(F)F)cc2)nc(N(C)C)c1)N(CC)S(=O)(=O)c1ccc(F)cc1 [Example 37, N-[[2-dimethylamino-6-[4-(trifluoromethyl)phenyl]-4-pyridyl]methyl]-2-[ethyl-(4-fluorophenyl)sulfonyl-amino]prop-2-enamide] | 95% | 95% | 82% | 82%
13 | 100% | 0.022 µM | 0.032 µM | C=C(C(=O)NCc1cc(-c2ccc(C(F)(F)F)cc2)nc(N2CCCC2)c1)N(CC)S(=O)(=O)c1ccc(Cl)s1 [Example 15, 2-[(5-chloro-2-thienyl)sulfonyl-ethyl-amino]-N-[[2-pyrrolidin-1-yl-6-[4-(trifluoromethyl)phenyl]-4-pyridyl]methyl]prop-2-enamide] | 72% | 72% | – | –
